Starred links: 1 amine or outer side, 2 acyl side, 3 side chain; linkers in the order of their positions; H or OH if unused. Non-standard residues stand in square brackets, D forms with d. Residues, ends and D or L forms follow the SMILES beside them. X1 = O=C([C@H](Cc1c[nH]cn1)N(c1ccc([N+](=O)[O-])c2nonc12)[*:1])[*:2]
Tests used:
[1] = tested on: brain / BBB; test: In vivo brain uptake, fluorescence microscopy of rat brain; parameters: species or system male Wistar rats
Method: (§1) In vivo studies were performed in male Wistar rats housed under a 12 hours light-dark cycle with free access to food and water. The animals were allocated in five groups, each consisting of three rats. Three animal groups received a single i.v. administration of NBD-gH625 at a concentration of 10 µg, 20 µg, and 40 µg/100 g bw, respectively. Control group received vehicle while another group received gH-625 (40 µg/100 g bw). Both NBD-gH625 and gH625 were dissolved in phosphate-buffered saline. After 3.5 hours from the i.v. administration, the animals were anesthetized with Zoletil® (40 mg/100 g) and euthanized by decapitation. This study was carried out in strict accordance with recommendations in the European Guide for the Care and Use of Laboratory Animals. Every effort was made to minimize animal pain and suffering. All animal protocols were approved by the Committee on the Ethics of Animal Experiments of the University of Napoli Federico II (Italy) and the Italian Minister of Health. (Protocol number 2012/000180).
The ex-vivo fluorescence microscopy analysis was performed to evaluate the distribution of NBD-gH625 on both sides of the BBB. In order to evaluate if there is a linear relationship between slides fluorescence integrated density and the amount of the peptide, a calibration curve was obtained. In particular, increasing amounts of NBD-gH625 (0–30 µM) were spotted on microscope slides and images at 515 nm were acquired (See the Results section) and analysed as described below. Brains were removed from animals, sectioned sagittally in thick slices, washed in PBS, mounted on coverslips, stained with DAPI (4′–6 Diamidino-2-Phenylindole, Dilactate) (Invitrogen, Carlsbad, CA, USA) and analysed under Axioskop fluorescence microscope (Zeiss). Images, at least 10 field of view (800 × 700 μm each) for each experimental class, were acquired using an AxioCam MRc5 (Zeiss) with DAPI filter (λex 350 nm; λem 461 nm) and a fluorescein isothiocyanate filter (λex 488 nm; λem 515 nm).
To evaluate the distribution of NBD-gH625 on both sides of the BBB, we estimated the fluorescence inside the blood vessels (without discriminating between the amount present in the blood and that present in the endothelial cells) and outside the blood vessels in 10 images for each experimental class. In detail, to assess the NBD-gH625 that reached without crossing the BBB, we selected blood vessels as the region of interest (ROI) (inbound) and evaluated the fluorescence intensity; then, on the non-zero thresholded images, an inversion of selected ROI was carried out to obtain the complementary ROI to calculate the amounts of NBD-gH625 which crossed the BBB (outbound).
The morphology of blood vessels was easily identified and outlined; the images were calibrated by ImageJ Rodbard function; integrated density values were calculated within the outlines exclusively, to be considered as inside fluorescence. Then, the thresholded and outlined images, to exclude both blood vessels and background values, were used to calculate the integrated density as outside fluorescence.
(§2) To evaluate the effect of concentration on the systemic delivery of NBD-gH625, a fluorescence microscopy analysis was performed as previously reported.
Briefly, livers and brains were isolated and fixed for 24 hours in Bouin’s fixative (71% picric acid, 5% acetic acid, 24% formaldehyde) and embedded in paraffin wax (Carlo Erba, Milan, Italy). Tissue sections (10 μm of thickness) were incubated in 0.1% Sudan Black B dissolved in 70% ethanol for 20 minutes to reduce the tissues autofluorescence. The excess of Sudan Black B was removed by washing with Tris-buffered saline containing 0.02% Tween 20[30],[31]. Sections were stained with DAPI to counterstain nuclei, then mounted with a coverslip in glycerol/phosphate-buffered saline (1:1) and acquired using an AxioCam MRc5 with DAPI filter (λex 350 nm; λem 461 nm) and a fluorescein isothiocyanate filter (λex 488 nm; λem 515 nm). […]

[2] = tested on: liver; test: In vivo liver uptake, fluorescence microscopy of rat liver slices; parameters: species or system male Wistar rats; settings: single i.v. 10, 20, 40 µg/100 g bw, 3.5 hours
Method: as §1, with “Every effort was made to minimize animal pain and suffering. All animal protocols were approved by the Committee on the Ethics of Animal Experiments of the University of Napoli Federico II (Italy) and the Italian Minister of Health. (Protocol number 2012/000180).” left out
as §2
Briefly, livers and brains were isolated and fixed for 24 hours in Bouin’s fixative (71% picric acid, 5% acetic acid, 24% formaldehyde) and embedded in paraffin wax (Carlo Erba, Milan, Italy). […] All images were then analysed using Fiji 1.50 software to determine the mean fluorescence and the integrated density, defined as the product of the mean fluorescence per the region of interest (μm^2)[32]. The percentage of delivered vs administered NBD-gH625 was calculated.

[3] = single i.v., 3.5 hours after administration, ex vivo brain slices, 515 nm

For `CC[C@H](C)[C@H](NC(=O)[C@H](CC(C)C)NC(=O)[C@H](C)NC(=O)[C@H](CC(N)=O)NC(=O)[C@H](Cc1ccc(O)cc1)NC(=O)[C@H](Cc1c[nH]cn1)NC(=O)[C@H](C)NC(=O)[C@H](Cc1c[nH]c2ccccc12)NC(=O)[C@H](CCCNC(=N)N)NC(=O)[C@@H](NC(=O)[C@H](CC(C)C)NC(=O)[C@@H](NC(=O)[C@H](CO)NC(=O)[C@H](C)NC(=O)[C@H](CC(C)C)NC(=O)CNC(=O)[C@H](Cc1c[nH]cn1)Nc1ccc([N+](=O)[O-])c2nonc12)[C@@H](C)O)[C@@H](C)O)C(=O)N[C@@H](CCCNC(=N)N)C(=O)N[C@@H](C)C(=O)N[C@@H](Cc1ccccc1)C(N)=O` [NBD-gH625] (H-[X1]GLASTLTRWAHYNALIRAF-NH2), the “Integrated density of fluorescence on brain slices” value ([1]; single i.v. 40 µg/100 g bw, 3.5 hours) was “comparable to the control”, the “Integrated density of fluorescence on brain slices, dependence on dose” value ([1]; single i.v. 10, 20, 40 µg/100 g bw, 3.5 hours) was “lower peptide concentrations are able to improve the reaching of the brain more compared to higher concentrations” and the “Percentage of peptide delivered in brain vs administered, dependence on dose” value ([1]; single i.v. 10, 20, 40 µg/100 g bw, 3.5 hours, integrated density calibrated with known amounts) was “lower doses produced higher percentages of delivered peptide”. For the same compound, the “Peptide crossing the BBB (fluorescence outside blood vessels, brain parenchyma)” value [1, 3] was “crosses the BBB”, the “Peptide delivered to the BBB (fluorescence inside blood brain vessels, integrated density)” value [1, 3] was “reaches the BBB of treated animals” and the “Integrated density of fluorescence on liver slices, dependence on dose” value [2] was “lowest dose of NBD-gH625 has higher effect”. The “Percentage of peptide delivered in liver vs administered, dependence on dose” value ([2]; integrated density calibrated with known amounts) was “lower doses produced higher percentages of delivered peptide”.

Source: paper PMC6138628, “Enhanced uptake of gH625 by blood brain barrier compared to liver in vivo: characterization of the mechanism by an in vitro model and implications for delivery” (Scientific Reports, 2018)
